# Measurements: patent US9232799B2, “N-[(het)arylethyl)] pyrazole(thio)carboxamides and their heterosubstituted analogues” (BAYER INTELLECTUAL PROPERTY GMBH, priority 2010, dated 2016)
# Read-outs that look alike come from different tables or passages of the source.
# What was measured:
# Leptosphaeria nodorum = test: In vivo preventive test on Leptosphaeria nodorum (wheat); details: 500 ppm of active ingredient, evaluated 7-9 days after inoculation
# Description: One day after this treatment, the plants are inoculated with an aqueous spore suspension of Leptosphaeria nodorum.
# Fusarium graminearum = test: microbe, parasite or virus in culture; format: cell-based; details: 50 μM
# Pyrenophora teres = test: In vivo preventive test on Pyrenophora teres (barley); details: 500 ppm of active ingredient, evaluated 7-9 days after inoculation
# Description: One day after this treatment, the plants are inoculated with an aqueous spore suspension of Pyrenophora teres.
# Sphaerotheca fuliginea = test: In vivo preventive test on Sphaerotheca fuliginea (cucumber); details: 500 ppm of active ingredient, evaluated 7 days after inoculation
# Description: One day after this treatment, the plants are inoculated with an aqueous spore suspension of Sphaerotheca fuliginea.
# aflatoxines production = test: microbe, parasite or virus in culture; format: cell-based, Aspergillus parasiticus; details: 50 μM
# Alternaria solani = test: In vivo preventive test on Alternaria solani (tomato); details: 500 ppm of active ingredient, evaluated 7 days after inoculation
# Description: One day after this treatment, the plants are inoculated with an aqueous spore suspension of Alternaria solani.
# Botrytis cinerea = test: In vivo preventive test on Botrytis cinerea (beans)
# Description: To test for preventive activity, young plants are sprayed with the preparation of active compound. After the spray coating has dried on, 2 small pieces of agar covered with growth of Botrytis cinerea are placed on each leaf.
# [1] = logP by HPLC on reversed-phase column (C 18), EEC Directive 79/831 Annex V.A8; format: physicochemical
# Procedure: In table 1, the logP values were determined in accordance with EEC Directive 79/831 Annex V.A8 by HPLC (High Performance Liquid Chromatography) on a reversed-phase column (C 18), using the method described below: Temperature: 40° C.; […]
# [2] = tested on: Blumeria graminis f.sp. hordei; test: In vivo preventive test on Blumeria graminis (barley); details: 500 ppm of active ingredient, evaluated 7 days after inoculation
# Description: (§1) To test for preventive activity, young plants are sprayed with the preparation of active compound or active compound combination at the stated rate of application.
# Septoria tritici = test: In vivo preventive test on Septoria tritici (wheat); details: 500 ppm of active ingredient, evaluated 21 days after inoculation
# Description: as §1
# [3] = Botrytis cinerea, 48 h, preventive, beans, 500 ppm of active ingredient, lesion size 2 days after inoculation, read-out: Efficacy
Structure (SMILES),Efficacy (Leptosphaeria nodorum) [%],% Inhibition of fungal growth at 50 μM (Fusarium graminearum) [%],Efficacy (Pyrenophora teres) [%],Efficacy (Sphaerotheca fuliginea) [%],% Inhibition of Aflatoxin at 50 μM (aflatoxines production) [%],Efficacy (Alternaria solani) [%],logP [1],other results
Cn1nc(C(F)F)c(C(=O)N(C2CC2)C2CCCCC2(C)c2ccccc2)c1F (mixture of isomers) [Example 218],95,99,100,94,100,70,,
"Cn1cc(C(=O)N[C@H]2C[C@H]2c2ccc(Cl)cc2)c(C(F)F)n1 [1.001 from WO-2007/134799, N-[(1S,2S-1R′,2R)-2-(4-chlorophenyl)cyclopropyl]-3-(difluoromethyl)-1-methyl-1H-pyrazole-4-carboxamide, reference compound]",,,,,,,,"Efficacy (Botrytis cinerea; preventive, beans, 100 ppm of active ingredient, lesion size 2 days after inoculation): 8%; Efficacy (Botrytis cinerea; preventive, beans, 100 ppm of active ingredient, lesion size 2 days after inoculation, listed as 1.001): less than 10%; Efficacy (Botrytis cinerea; preventive, beans, 500 ppm of active ingredient, lesion size 2 days after inoculation): 89%; Efficacy (Botrytis cinerea; preventive, beans, 500 ppm of active ingredient, lesion size 2 days after inoculation, listed as 1.001): at least 85%"
"Cc1nn(C)c(Cl)c1C(=O)NC(C)(C)C(=O)c1ccc2ccccc2c1 [2-1 from WO-2006/016708, 5-chloro-1,3-dimethyl-N-[2-methyl-1-(2-naphthyl)-1-oxopropan-2-yl]-1H-pyrazole-4-carboxamide, reference compound]",,,,,,,,pest or weed control at 500 ppm (Botrytis cinerea; [3]): < 30%
CC(CN(C(=S)c1c(C(F)F)nn(C)c1F)C1CC1)c1ccccc1 (stereo not drawn) [Example 15],100,83,100,100,100,90,3.92,
CC(CN(C(=S)c1c(C(F)F)nn(C)c1Cl)C1CC1)c1ccccc1 (stereo not drawn) [Example 16],95,,100,,,95,4.11,
CC(Cc1ccccc1F)N(C(=O)c1c(C(F)F)nn(C)c1F)C1CC1 (stereo not drawn) [Example 19],70,100,100,,100,100,3.37,
CC(Cc1c(F)cccc1F)N(C(=S)c1c(C(F)F)nn(C)c1F)C1CC1 (stereo not drawn) [Example 28],95,,100,100,,90,3.94,
CC(Cc1ccccc1Cl)NC(=O)c1c(C(F)F)nn(C)c1F (stereo not drawn) [Example 31],70,100,100,96,100,100,2.94,
CC(c1ccccc1Cl)C(C)N(C(=S)c1c(C(F)F)nn(C)c1F)C1CC1 (stereo not drawn) [Example 43],100,90,100,100,100,90,4.72,
COC(c1ccc(Cl)cc1Cl)C1(NC(=O)c2c(C(F)F)nn(C)c2Cl)CC1 (stereo not drawn) [Example 78],80,100,100,100,100,100,3.70,
COC(c1ccc(Cl)cc1Cl)C1(NC(=O)c2c(C(F)F)nn(C)c2F)CC1 (stereo not drawn) [Example 79],80,98,100,100,100,100,3.46,
Cn1nc(C(F)F)c(C(=O)NCC(C)(C)c2ccc(Cl)cc2Cl)c1F [Example 87],70,94,94,,100,95,3.81,
CN(CCc1cc(Cl)ccc1Cl)C(=S)c1c(C(F)F)nn(C)c1F [Example 96],90,82,100,,100,95,3.87,
Cn1nc(C(F)F)c(C(=O)NCC(C)(C)c2cc(Cl)ccc2Cl)c1Cl [Example 101],,86,70,83,100,100,3.89,
COC(CNC(=O)c1c(C(F)F)nn(C)c1F)c1cc(Cl)cc(Cl)c1 (stereo not drawn) [Example 107],,74,95,,98,90,3.33,Efficacy [2]: 78%; Efficacy (Septoria tritici): 86%
Cc1scc(CCNC(=O)c2c(C(F)F)nn(C)c2F)c1C [Example 167],,100,100,90,100,100,2.82,
CCC(CNC(=O)c1c(C(F)F)nn(C)c1Cl)c1ncc(C(F)(F)F)cc1Cl (stereo not drawn) [Example 193],,91,100,83,100,100,3.73,
Cn1nc(C(F)F)c(C(=O)NC(C)(C)C(=O)c2ncc(C(F)(F)F)cc2Cl)c1Cl [Example 195],94,81,100,91,100,95,3.39,
Cn1nc(C(F)F)c(C(=O)N(C2CC2)C2CCCCC2c2ccccc2Cl)c1F (stereo not drawn) [Example 216],,84,95,100,100,71,4.49,
Cn1nc(C(F)F)c(C(=O)NC2CC2c2cccc(F)c2)c1F (stereo not drawn) [Example 222],90,81,100,,99,,2.59,
Cn1nc(C(F)F)c(C(=O)NC2CC2c2ccccc2C(F)(F)F)c1F (stereo not drawn) [Example 225],,83,100,80,97,95,3.00,
Cn1nc(C(F)F)c(C(=O)N(C[Si](C)(C)c2ccsc2)C2CC2)c1F [Example 248],94,100,100,,100,94,3.55,
"CC(Cc1ccc(Cl)cc1)N(C(=O)c1cn(C)nc1C(F)F)C1CC1 (stereo not drawn) [F-3 from WO-2007/060164, N-[1-(4-chlorophenyl)propan-2-yl]-N-cyclopropyl-3-(difluoromethyl)-1-methyl-1H-pyrazole-4-carboxamide, reference compound]",,,,,,,,"pest or weed control at 500 ppm (Botrytis cinerea; [3]): 0%; Efficacy (Botrytis cinerea; preventive, beans, 500 ppm of active ingredient, lesion size 2 days after inoculation, listed as F-3): no protection"
"Cc1nn(C)c(F)c1C(=O)NCCc1ncc(C(F)(F)F)cc1Cl [J-1 from WO-2004/074280, N-{2-[3-chloro-5-(trifluoromethyl)pyridin-2-yl]ethyl}-5-fluoro-1,3-dimethyl-1H-pyrazole-4-carboxamide, reference compound]",,,,16,,,,"pest or weed control at 500 ppm (Botrytis cinerea; [3]): 0%; Efficacy (Botrytis cinerea; preventive, beans, 500 ppm of active ingredient, lesion size 2 days after inoculation, listed as J-1): no protection; Efficacy (Sphaerotheca fuliginea; listed as J-1): less than 20%"
"Cc1nn(C)c(F)c1C(=O)N(C[Si](C)(C)c1cc(Cl)cc(Cl)c1)C1CC1 [compound CMP2, N-cyclopropyl-N-{[(3,5-dichlorophenyl)(dimethyl)silyl]methyl}-5-fluoro-1,3-dimethyl-1H-pyrazole-4-carboxamide, reference compound]",,,,,,,,"pest or weed control at 500 ppm (Botrytis cinerea; Botrytis cinerea, 48 h, dose 500 ppm of active ingredient, table K10, read-out: Efficacy): 10%; pest or weed control at 500 ppm (Botrytis cinerea; [3]): < 10%"
"Cn1cc(C(=O)NCCc2ccc(Cl)cc2Cl)c(C(F)F)n1 [compound CMP3, N-[2-(2,4-dichlorophenyl)ethyl]-3-(difluoromethyl)-1-methyl-1H-pyrazole-4-carboxamide, reference compound]",,,,,,,,"pest or weed control at 100 ppm (Botrytis cinerea; Botrytis cinerea, 48 h, preventive, beans, 100 ppm of active ingredient, lesion size 2 days after inoculation, read-out: Efficacy): 0%"
"Cc1nn(C)c(F)c1C(=O)NC(C)Cc1ncc(C(F)(F)F)cc1Cl (stereo not drawn) [compound CMP6, N-{1-[3-chloro-5-(trifluoromethyl)pyridin-2-yl]propan-2-yl}-5-fluoro-1,3-dimethyl-1H-pyrazole-4-carboxamide, reference compound]",,,,,,,,pest or weed control at 500 ppm (Botrytis cinerea; [3]): 0%
